Measurements: patent US7615361B2, “Toxicity screening methods” (Ceetox, Inc., priority 2006, dated 2009)

How the values were obtained:
[1] = Metabolic activation (disappearance of GSH); details: liver microsomes from Phenobarbital/BNF induced rats
P-glycoprotein (PgP) = P-glycoprotein (PgP) binding: MTT with and without cyclosporin A; type: cell-based, rat; details: H4IIE 24 HR; for % Control (Compound + CSA) / % Control (Compound): MTT, 50 μM; for % Control (Compound + CSA): with cyclosporin A; for % Control (Compound): without CSA
Protocol: Several antiviral drugs are substrates for P-glycoprotein transporter (PgP).
P-glycoprotein (PgP) transport proteins are expressed in the bile canalicular membrane of normal liver. However, in neoplastic cells it is not uncommon to have expression of this transporter system in the plasma membrane. […] The existence of these transporters was evaluated with the Calcein-AM assay and with known substrates of PgP.

H4IIE cells [2] = assay: MemTox membrane leakage (AK / α-GST); type: cell-based, rat
Protocol: (§1) One test compound (Compound A) was received as dry powder and evaluated for potential cytotoxicity in a battery of in vitro assays. The compound was tested using both rat cardiomyocytes (CM) from rat neonates and a rat hepatoma (H4IIE) cell line. […] The cell supernatant or the cells themselves were harvested for biochemical analysis. General cytotoxicity was evaluated by monitoring membrane integrity, mitochondrial function, cell proliferation, oxidative stress, and apoptosis. In addition, interaction with P-glycoprotein (PgP) on H4IIE cells and solubility of the test compound were also assessed. The means of each exposure group (n=3-7) were calculated for each assay performed.
(§2) Experimental Protocol: The test compound was provided and stored at 4° C. until needed. Dosing solutions were prepared in complete culture medium. The rat hepatoma (H4IIE) cell line was used as the test system.
(§3) Membrane Leakage (α-Glutathione S-transferase and/or Adenylate Kinase): The presence of Adenylate Kinase (AK) or α-Glutathione S-transferase (α-GST), both enzyme leakage markers, was measured in the culture medium using an activity assay for Adenylate Kinase and/or an ELISA assay for α-GST. At the end of the exposure period, the medium covering the cells in each well was removed and placed into new 96-well plates with appropriate labeling. […] Luminescence (AK) values were measured with a Packard Fusion or equivalent plate reader, and absorbance (α-GST) values were measured with a Packard SpectraCount™ or equivalent reader at 450 nm and reference absorbance at 650 nm.
(§4) Membrane Leakage (α-Glutathione S-transferase and/or Adenylate Kinase): Leakage of Adenylate Kinase or α-GST from the cell into the culture medium was determined by collecting the culture medium at the end of the exposure period. Thus, the values measured represent total enzyme leakage lost over the exposure period. The control for 100% dead or maximum enzyme release was based on cells treated with 1 mM digitonin at the time of dosing. Percent dead cells relative to digitonin treated cells was determined and then subtracted from 100% to yield the percent live cells.

rat cardiomyocytes [3] = assay: Membrane lipid peroxidation (8-isoprostane ELISA); type: cell-based
Protocol: (§5) One test compound (Compound A) was received as dry powder and evaluated for potential cytotoxicity in a battery of in vitro assays. The compound was tested using both rat cardiomyocytes (CM) from rat neonates and a rat hepatoma (H4IIE) cell line. […] Camptothecin and rotenone were included as positive control compounds. The cell supernatant or the cells themselves were harvested for biochemical analysis. General cytotoxicity was evaluated by monitoring membrane integrity, mitochondrial function, cell proliferation, oxidative stress, and apoptosis. In addition, interaction with P-glycoprotein (PgP) on H4IIE cells and solubility of the test compound were also assessed. The means of each exposure group (n=3-7) were calculated for each assay performed. Intra assay variation well-to-well was typically less than 10% with plate to plate variation typically less than 20%.

H4IIE cells [4] = assay: Membrane lipid peroxidation (8-isoprostane ELISA); type: cell-based, rat
Protocol: as §5, §2

rat cardiomyocytes [5] = assay: MemTox membrane leakage (AK / α-GST); type: cell-based
Protocol: as §1, §3, §4

H4IIE cells [6] = assay: MTT reduction; type: cell-based, rat
Protocol: as §1, §2
(§6) Tetrazolium Dye Reduction: 3-[4,5-dimethylthiazol-2-yl]

H4IIE cells [7] = assay: Intracellular total glutathione (GSH); type: cell-based, rat
Protocol: as §1, §2

rat cardiomyocytes [8] = assay: MTT reduction; type: cell-based
Protocol: as §1, §6

H4IIE cells [9] = assay: Intracellular ATP levels; type: cell-based, rat
Protocol: as §1, §2
(§7) Intracellular ATP Levels: Cellular Adenosine triphosphate (ATP) was determined with an assay based on a reaction between ATP+D-luciferin+oxygen catalyzed by luciferase to yield Oxyluciferin+AMP+PPi+CO2+light. The emitted light is proportional to the amount of ATP present. […] In addition, a unique cell lysis reagent inhibits endogenous ATPases and therefore stabilizes cellular ATP by preventing its degradation to ADP. ATP is present in all-living cells and declines rapidly upon cell death. In addition, this assay in combination with the MTT assay provides an indicator of mitochondrial activity and energy status of the cell.
(§8) Plates were analyzed immediately or stored at −20° C. until needed. On the day of analysis, the plates were thawed and calibration curve prepared with ATP in the same liquid matrix as samples. ATP was quantified by adding ATP substrate solution and then reading luminescence on a Packard Fusion Luminescence or equivalent plate reader.
(§9) Intracellular ATP Levels: ATP levels in treated cells could be determined by using the regression coefficients obtained from the linear regression analysis of the calibration curve. Thus, values could be expressed as pmoles ATP/million cells. Background corrected luminescence was used to determine percent change relative to controls by dividing treated values by control values and multiplying by 100.

rat cardiomyocytes [10] = assay: Intracellular total glutathione (GSH); type: cell-based
Protocol: as §1

H4IIE cells [11] = assay: Cell number (propidium iodide); type: cell-based, rat
Protocol: as §1, §2
Cell Proliferation: Cell proliferation in each well was measured with propidium iodide (PI). This specific nucleic acid binding dye fluoresces when intercalated within the nucleic acids. The 15 nm shift enhances PI fluorescence approximately 20 times while the excitation maxima are shifted 30-40 nm. During method development experiments, it was determined that Triton-X-100 was the best solution to permeabilize the H4IIE cells thereby allowing the PI access to intracellular RNA and DNA. Fluorescence was measured using a Packard Fusion plate reader or equivalent reader at 540 nm excitation and 610 nm emission.
Cell Proliferation: After incubation, the test compound was removed and Triton X-100 solution containing propidium iodide is added. The plate was incubated and read on a fluorescent plate reader. Data was collected as relative fluorescent units (RFU). The blank was subtracted from the final well RFU. It represents the average of the first and last columns which contain no cells on that particular plate. The controls are untreated cells allowed to grow on the same plate. The compounds are represented by several separate RFU data points for each of the tested concentrations. The percent change relative to controls was calculated by dividing the average RFU by the control cell RFU and multiplying by 100.

rat cardiomyocytes [12] = assay: Intracellular ATP levels; type: cell-based
Protocol: as §1, §7, §8, §9

[13] = Metabolic stability (LC/MS, parent remaining); type: in vitro ADME, dog; details: 1 μM, 30 min at 37° C.
Protocol: (§10) Metabolic stability was conducted using pooled microsomes form induced (BNF/PB) male rat (Sprague-Dawley) animals and induced (BNF/PB) male dog (Beagle) animals. The test compounds were incubated for 30 min at 37° C. at concentrations of 1 μM. Subsequent LC/MS analysis measured disappearance of the parent molecule. The data are expressed as percent of parent remaining. Positive controls for highly metabolized compounds were included for comparison.
(§11) Metabolic Stability and Profiling by mass spectrometry: Metabolic stability was conducted using pooled male dog (beagle) microsomes and male rat (Sprague-Dawley) microsomes from induced (beta-Naphthoflavone/Phenobarbital, BNF/PB) animals. The test compounds were incubated for 30 min at 37° C. at concentrations of 1 and 10 μM. Subsequent analysis by mass spectrometry measured disappearance of the parent molecule. The data are expressed as percent of parent remaining. Positive controls for highly metabolized compounds were included for comparison.
(§12) Metabolic Stability: The analysis measured disappearance of the parent molecule. The data were expressed as percent of parent remaining. Positive controls for highly metabolized compounds were included for comparison.

[14] = Metabolic stability (LC/MS, parent remaining); type: in vitro ADME, rat; details: 1 μM, 30 min at 37° C.
Protocol: as §10, §11, §12

H4IIE cells [15] = assay: Predicted Ctox from Tox-Panel; type: cell-based, rat; details: 24 HR, estimated sustained plasma concentration where toxicity would be expected in vivo
Protocol: Once all data for a given cluster of assays are received, the data are analyzed to obtain a detailed profile of the compound's toxicity. For example, most conveniently, the data are collated over a dose response range on a single graph. In such an embodiment, the measurement evaluated for each parameter (i.e., each indicator of cell health) at any given concentration is plotted as a percentage of a control measurement obtained in the absence of the compound. However, it should be noted that the data need not be plotted on a single graph, so long as all the parameters are analyzed collectively to yield detailed information of the effects of the concentration of the compound on the different parameters to yield an overall toxicity profile. As set forth below, this overall toxicity profile will facilitate a determination of a plasma concentration Ctox that is predicted to be toxic in vivo. Ctox represents an estimate of the sustained plasma concentration in vivo that would result in toxicity, such as hepatotoxicity or hematopoietic toxicity.
Studies such as these indicate that a preferred concentration for setting Ctox is the highest concentration at which there is no observed effect on any of the indicators being measured in the cluster analysis, especially a 24-hour cluster analysis. […] It will be apparent that 24 hour assays are more time-effective, and consequently, the 24 hour NOEL/Ctox represents a preferred data point to select as Ctox in a CATS assay. It will also be apparent that, with further time studies, it may be possible to select an equally suitable Ctox at other CATS assay time points (e.g., between 24 and 72 hours, or less than 24 hours).
In certain embodiments, the predicting comprises performing concentration response analyses of measurements from at least three separate assays that are employed in the cluster analysis. For example, in the cell health cluster, such predicting will involve monitoring the concentration response effect of the compound on a first health indicator which monitors cellular replication, a second cell health indicator which monitors mitochondrial function, and a third cell health indicator which monitors membrane integrity. Of course, it is understood that fourth, fifth, sixth or more cell health indicators also may be employed. From these concentration response analyses, the highest concentration of the chemical compound at which a measurable toxic effect of the chemical compound is not observable, i.e. NOEL, is determined and the Ctox is identified as the concentration that correlates to the NOEL. In choosing the concentrations of the compound for analysis, one of skill in the art should devise a dose response regimen which is selected to provide an indication of cell health at concentrations of at least two concentration values higher than the Ctox concentration.
The Ctox (H4IIE) value was developed using 24 hr in vitro toxicity data and was validated by retrospectively evaluating compounds across different classes of drugs in 14-day rat studies in which compounds were administered on a daily basis and pharmacokinetic data was available. […] Thus, Ctox values are only determined for the 24 hr in vitro results. The 6 hr toxicity analyses are typically not performed but are beneficial for interpretation of results when compound toxicity is high (e.g., Ctox≦20 μM).

[16] = MemTox membrane leakage (AK / α-GST); type: cell-based, rat; details: rat
Protocol: as §1, §3, §4

[17] = Intracellular total glutathione (GSH); type: cell-based, rat; details: rat, Total GSH TC50
Protocol: as §1, §2

MTT reduction = type: cell-based, rat; details: rat
Protocol: as §1, §6

[18] = Intracellular total glutathione (GSH); type: cell-based, rat; details: rat
Protocol: as §1

Intracellular ATP levels = type: cell-based, rat; details: rat
Protocol: as §1, §7, §8, §9

CC(C)C(=O)Nc1ccc([N+](=O)[O-])c(C(F)(F)F)c1 [flutamide]
reduction in GSH (metabolic activation) [1]: most pronounced effects

Cc1cn([C@H]2C[C@H](N=[N+]=[N-])[C@@H](CO)O2)c(=O)[nH]c1=O [AZT]
% Control (Compound + CSA) (P-glycoprotein (PgP)): 99.0% | % Control (Compound) (P-glycoprotein (PgP)): 116.6% | CC50 (H4IIE cells [2]): > 300 µM | Membrane Lipid Peroxidation (rat cardiomyocytes [3]): 0 | Membrane Lipid Peroxidation (H4IIE cells [4]): 0 | CC50 (rat cardiomyocytes [5]): > 300 µM | CC50 (H4IIE cells [6]): > 300 µM | CC50 (H4IIE cells [7]): > 300 µM | CC50 (rat cardiomyocytes [8]): > 300 µM | CC50 (H4IIE cells [9]): > 300 µM | CC50 (rat cardiomyocytes [10]): > 300 µM | CC50 (H4IIE cells [11]): > 300 µM | CC50 (rat cardiomyocytes [12]): > 300 µM

Cc1ncc2n1-c1ccc(Cl)cc1C(c1ccccc1F)=NC2 [MIDAZOLAM]
% Parent Remaining Dog Microsomes [13]: 0.0% | % Parent Remaining Rat Microsomes [14]: 0.0%

CC(C)(C)NC(=O)[C@@H]1CN(Cc2cccnc2)CCN1C[C@@H](O)C[C@@H](Cc1ccccc1)C(=O)N[C@H]1c2ccccc2C[C@H]1O [indinavir]
% Control (Compound + CSA) (P-glycoprotein (PgP)): 91.3% | % Control (Compound) (P-glycoprotein (PgP)): 106.0% | % Difference (P-glycoprotein (PgP); 1-20% low, 20-50% moderate, 50-100% high PgP interaction): 13.9% | MemTox TC50 (H4IIE cells [2]; rat, 24 h): 300 µM | Predicted Ctox (H4IIE cells [15]): 90 µM | CC50 at 24 h [16]: > 300 µM | MTT TC50 (H4IIE cells [6]; rat, 24 h): 300 µM | CC50 at 24 h [17]: 249 µM | CC50 at 24 h (MTT reduction): > 300 µM | ATP TC50 (H4IIE cells [9]; rat, 24 h): 300 µM | CC50 at 24 h [18]: 71 µM | Cell Number TC50 (H4IIE cells [11]; rat, 24 h): 300 µM | CC50 at 24 h (Intracellular ATP levels): > 300 µM
